Assay results from patent US20240277717A1, “APPLICATION OF GANCICLOVIR IN PREPAPRATION OF MEDICINE FOR TREATING ALLERGIC RHINITIS” (Union Hospital, Tongji Medical College, Huazhong University …, priority 2023, published 2024).

What was measured:
nasal scraping cells = assay: Transcriptome sequencing (RNA-seq) of nasal scraping cells; type: in vivo, human
Procedure: (§1) The scraped mucosal epithelial cells are placed in a TRIzol™ reagent (Invitrogen™) and stored in liquid nitrogen for processing. Library preparation and high-throughput sequencing, data analysis, ribonucleic acid (RNA) sequence and deoxyribonucleic acid (DNA) virus sequence enrichment analysis are performed by Seqhealth Technology Co., Ltd. (China; wuhan). Sample quality analysis is performed by Nanodrop™ OneC spectrophotometer to detect expression at A260 and A280. Qualified samples are finally quantified by QubitR®3.0 fluorometer and Qubit™ RNA broad-range (BR) Assay kits. The original data is first filtered by Trimomatic (Version 0.36). Counting by FeatureCounts, and then calculate reads per kilobase of exon model per million mapped reads (RPKM). Differentially expressed genes between groups are identified using an edgeR package (Version 3.12.1). In analysis, P value<0.05 and fold change (FC) higher than 2 are considered to be significant differences in gene expression between groups.

[1] = test system: patients with the intractable AR; assay: Interventional non-randomized cohort study of GCV for intractable AR: clinical symptom scores (VAS, ARCT, TNSS); type: in vivo, human; details: for TNSS after GCV treatment / rhinocnesmus score after GCV treatment / sneezing score after GCV treatment / rhinocleisis score after GCV treatment / rhinorrhea score after GCV treatment / ARCT after GCV treatment / VAS after GCV treatment: 14 days; for ARCT after GCV then routine anti-allergic medicines / TNSS after GCV then routine anti-allergic medicines / VAS after GCV then routine anti-allergic medicines / rhinocleisis score after GCV then routine anti-allergic medicines / rhinocnesmus score after GCV then routine anti-allergic medicines / rhinorrhea score after GCV then routine anti-allergic medicines / sneezing score after GCV then routine anti-allergic medicines: then routine anti-allergic medicines 14 days
Description: All patients are recruited from outpatient department of otolaryngology, the patients with AR complain of poor efficacy of routine anti-allergic medicines (nasal glucocorticoid sprays, oral antihistamines, nasal antihistamine sprays and oral leukotriene receptor antagonists). The inclusion and exclusion criteria of recruiting are as follows.
The exclusion criteria: (1) patients have viral/bacterial infection symptoms, fevers and/or other systemic manifestations in the past 2 weeks; (2) patients have other nasal diseases, such as nasal polyps or nasal tumors; (3) patients have a history of nasal surgery in the past 6 months; (4) patients are allergic to the GCV; (5) patients are pregnant women and patients are preparing for pregnancy; (6) the patients have severe neutropenia (absolute neutrophil count<0.5×10^9 per liter) or severe thrombocytopenia (platelet count<2.5×10^10 per liter).
An interventional non-randomized cohort study is conducted. Selected patients are treated with the routine anti-allergic medicines for 2 weeks to exclude the illusion of poor efficacy due to non-standard medication (combined use of nasal spray hormones and oral antihistamines to exclude treatment, and the selected patients are switched to with another brand of similar medicines if the selected patients have previously used the above medicines but no effect).
The selected patients are grouped according to responses to the routine anti-allergic medicines. If the routine anti-allergic medicines treatments are effective, the selected patients are classified as a common AR group; if ineffective, the selected patients are defined as intractable AR patients. The intractable AR patients are treated with the GCV for 2 weeks (oral, 500 milligrams per time (mg/time) twice a day for the patients≥14 years old; 250 mg/time twice a day for the patients<14 years old). If the GCV treatments are ineffective, the patients are classified as a GCV ineffective group; if effective, the patients are classified as GCV effective group. After 2 weeks of the GCV treatment, the patients in the GCV effective group, if total nasal symptom score (TNSS)≥4 or visual analogue scale (VAS)≥3 centimeters (cm) after the GCV treatment, […], conversely, the GCV treatment ends. The nasal symptoms are evaluated at each follow-up. In this situation, nasal secretion smears, nasal secretions, nasal scraping epithelial cells and peripheral blood are collected.
The visual analogue scale (VAS): the severity of all comprehensive symptoms is assessed by the VAS, ranging from 0 (no symptoms) to 10 centimeters (most severe and imaginable symptoms). Allergic rhinitis and its impact on asthma (ARIA) 2008 guideline classification: “mild” AR=0-3 centimeters, “moderate” AR=3.1-7 centimeters, “severe” AR=7.1-10 centimeters.
Allergic rhinitis control test (ARCT) is a self-administered questionnaire on AR control verified by Demoly et al. It consists of five questions with a score of 1-5 points for each question scored and a total score of 5-25 points. The intractable AR is defined as patients with ARCT score<20 points after 2 weeks of treatment.
Nasal symptom score: rhinocleisis, rhinocnesmus, sneezing, rhinorrhea are scored separately. No symptoms=0; mild (mild symptoms, easy to tolerate)=1; moderate (obvious symptoms, annoying, but tolerable)=2; severe (symptoms are not tolerable, affecting daily life or sleep)=3. The total nasal symptom score (TNSS) is the sum of all nasal symptom scores, ranging from 0 to 12.

[2] = test system: EB virus, human-cytomegalovirus, HSV 1, 2, 3, 6, 7, 8; assay: DNA virus sequence enrichment analysis of nasal scraping cells; type: in vivo; details: GCV effective group
Procedure: as §1

[3] = GCV effective group n=6, before vs after, P<0.05 and FC>2
[4] = GCV effective group n=6, nasal scraping cells
[5] = Case 1, GCV 250 mg/time twice a day, before 1
[6] = Case 1, GCV 250 mg/time twice a day, before 3
[7] = Case 2, GCV 500 mg/time twice a day, before 2
[8] = Case 2, GCV 500 mg/time twice a day, before 7
[9] = Case 2, GCV 14 days, then nasal spray hormone plus oral antihistamines 14 days
[10] = Case 3, GCV 250 mg/time twice a day, before 3
[11] = Case 4, GCV 500 mg/time twice a day, before 1
[12] = Case 5, GCV 500 mg/time twice a day, before 3

## Nc1nc(O)c2ncn(COC(CO)CO)c2n1 [GCV, Ganciclovir]
Nasal scraping cells; [3]
  genes down-regulated after GCV treatment: 160 genes
  genes up-regulated after GCV treatment: 25 genes
Nasal scraping cells; [4]
  CXCL9 expression after GCV treatment: up-regulated
  CXCL10 expression after GCV treatment: up-regulated
  MUC5B expression after GCV treatment: down-regulated
[1]; Case 1 (person one), GCV 250 mg/time twice a day, before 8
  TNSS after GCV treatment: 3 points
[1]; [5]
  rhinocnesmus score after GCV treatment: 1 points
  sneezing score after GCV treatment: 0 points
[1]; [6]
  rhinocleisis score after GCV treatment: 1 points
  rhinorrhea score after GCV treatment: 1 points
[1]; Case 1, GCV 250 mg/time twice a day, before 5
  ARCT after GCV treatment: 21 points
[1]; Case 1, GCV 250 mg/time twice a day, before 8
  VAS after GCV treatment: 4.5 cm
[1]; Case 1, GCV 14 days
  ARCT after GCV then routine anti-allergic medicines: 24 points
  TNSS after GCV then routine anti-allergic medicines: 2 points
  VAS after GCV then routine anti-allergic medicines: 2.5 cm
  rhinocleisis score after GCV then routine anti-allergic medicines: 1 points
  rhinocnesmus score after GCV then routine anti-allergic medicines: 0 points
  rhinorrhea score after GCV then routine anti-allergic medicines: 1 points
  sneezing score after GCV then routine anti-allergic medicines: 0 points
[1]; [7]
  rhinocleisis score after GCV treatment: 2 points
  rhinocnesmus score after GCV treatment: 2 points
  rhinorrhea score after GCV treatment: 0 points
  sneezing score after GCV treatment: 0 points
[1]; [8]
  ARCT after GCV treatment: 20 points
  VAS after GCV treatment: 4 cm
[1]; Case 2, GCV 500 mg/time twice a day, before 8
  TNSS after GCV treatment: 4 points
[1]; [9]
  ARCT after GCV then anti-allergic medicines: 25 points
  TNSS after GCV then anti-allergic medicines: 1 point
  VAS after GCV then anti-allergic medicines: 2 cm
  rhinocleisis score after GCV then anti-allergic medicines: 1 point
  rhinocnesmus score after GCV then anti-allergic medicines: 0 point
  rhinorrhea score after GCV then anti-allergic medicines: 0 point
  sneezing score after GCV then anti-allergic medicines: 0 point
[1]; [10]
  rhinocleisis score after GCV treatment: 2 points
  rhinocnesmus score after GCV treatment: 1 points
  rhinorrhea score after GCV treatment: 3 points
  sneezing score after GCV treatment: 3 points
[1]; Case 3, GCV 250 mg/time twice a day, before 5
  ARCT after GCV treatment: 22 points
[1]; Case 3, GCV 250 mg/time twice a day, before 10
  VAS after GCV treatment: 5 cm
[1]; Case 3, GCV 250 mg/time twice a day, before 12
  TNSS after GCV treatment: 9 points
[1]; Case 3, GCV 14 days
  ARCT after GCV then routine anti-allergic medicines: 25 points
  TNSS after GCV then routine anti-allergic medicines: 3 points
  VAS after GCV then routine anti-allergic medicines: 2.5 cm
  rhinocleisis score after GCV then routine anti-allergic medicines: 1 point
  rhinocnesmus score after GCV then routine anti-allergic medicines: 0 point
  rhinorrhea score after GCV then routine anti-allergic medicines: 1 point
  sneezing score after GCV then routine anti-allergic medicines: 1 point
[1]; Case 4, GCV 500 mg/time twice a day
  ARCT after GCV treatment: 24 points
[1]; [11]
  rhinocnesmus score after GCV treatment: 0 point
  sneezing score after GCV treatment: 0 point
[1]; Case 4, GCV 500 mg/time twice a day, before 2
  rhinorrhea score after GCV treatment: 1 point
[1]; Case 4, GCV 500 mg/time twice a day, before 3
  rhinocleisis score after GCV treatment: 1 point
[1]; Case 4, GCV 500 mg/time twice a day, before 7
  TNSS after GCV treatment: 2 points
[1]; Case 4, GCV 500 mg/time twice a day, before 9
  VAS after GCV treatment: 1.5 cm
[1]; Case 4, GCV 14 days, then 7 days of the nasal spray hormone
  nasal symptoms after GCV then nasal spray hormone: disappear completely
[1]; Case 5, GCV 500 mg/time twice a day, before 0
  rhinocnesmus score after GCV treatment: 0 point
[1]; Case 5, GCV 500 mg/time twice a day, before 1
  rhinorrhea score after GCV treatment: 1 point
[1]; [12]
  rhinocleisis score after GCV treatment: 1 point
  sneezing score after GCV treatment: 0 point
[1]; Case 5, GCV 500 mg/time twice a day, before 5
  ARCT after GCV treatment: 24 points
[1]; Case 5, GCV 500 mg/time twice a day, before 7
  TNSS after GCV treatment: 2 points
[1]; Case 5, GCV 500 mg/time twice a day, before 10
  VAS after GCV treatment: 2.2 cm
[1]; GCV effective group
  nasal symptom (rhinocleisis, rhinocnesmus, sneezing, rhinorrhea) scores before and after GCV treatment (FIG. 2): significantly improved
[1]; GCV effective group n=26, after 2 weeks GCV
  ARCT, VAS and TNSS scores during diagnosis and treatment (FIGS. 1A-1C): significantly ameliorates the nasal symptoms
[1]; n=15 with TNSS≥4 or VAS≥3 cm after 2 weeks GCV, then anti-allergic medicines 2 weeks
  nasal symptoms after re-treatment with previously ineffective anti-allergic medicines following GCV: could further reduce the nasal symptoms
[1]; oral GCV 2 weeks, 14/40, ineffective = ARCT<20
  intractable AR patients ineffective after the GCV treatment: 35%
[2]
  enrichment of genes of EB virus, human-cytomegalovirus, HSV 1, 2, 3, 6, 7, 8 before and after GCV treatment (FIG. 3B): no statistical difference
